Columns and labels:
human GLP-1R [1] = molecular target: T1, human GLP-1R (Homo sapiens, UniProt P43220); experiment: receptor internalization (Nano-Glo HiBiT), human GLP-1R; format: cell-based; design: host or cells: HEK293
Protocol: (§3) GLP-1R and GIPR internalization were measured using Promega's Nano-Glo® HiBit extracellular detection system (Promega Corporation; Madison, WI). Hek293 cells were transiently transfected with HiBiT-tagged hGLP-1R or hGIPR plasmids (Promega Corporation; Madison, WI). Cells were lifted using the TrypLE express enzyme (ThermoFisher Scientific) and plated at 80,000-100,000 cells per well in 96 well plates. Cells were then treated with Nano-Glo HibiT extracellular buffer containing LgBiT protein (1:100), and the Nano-Glo HiBiT extracellular substrate (1:50).
(§4) GLP-1R and GIPR internalization was measured using Promega's Nano-Glo® HiBit extracellular detection system (Promega Corporation; Madison, WI). HEK293 cells were transiently transfected with low quantities of HiBiT-tagged hGLP-1R or hGIPR plasmids (Promega Corporation; Madison, WI). The next day, cells were lifted using TrypLE express enzyme (ThermoFisher Scientific) and plated at 80,000-100,000 cells per well in 96 well plates.

human GIPR [2] = molecular target: T2, human GIPR (Homo sapiens, UniProt P48546); experiment: receptor internalization (Nano-Glo HiBiT), human GIPR; format: cell-based
T2 sequence (P48546 22-466): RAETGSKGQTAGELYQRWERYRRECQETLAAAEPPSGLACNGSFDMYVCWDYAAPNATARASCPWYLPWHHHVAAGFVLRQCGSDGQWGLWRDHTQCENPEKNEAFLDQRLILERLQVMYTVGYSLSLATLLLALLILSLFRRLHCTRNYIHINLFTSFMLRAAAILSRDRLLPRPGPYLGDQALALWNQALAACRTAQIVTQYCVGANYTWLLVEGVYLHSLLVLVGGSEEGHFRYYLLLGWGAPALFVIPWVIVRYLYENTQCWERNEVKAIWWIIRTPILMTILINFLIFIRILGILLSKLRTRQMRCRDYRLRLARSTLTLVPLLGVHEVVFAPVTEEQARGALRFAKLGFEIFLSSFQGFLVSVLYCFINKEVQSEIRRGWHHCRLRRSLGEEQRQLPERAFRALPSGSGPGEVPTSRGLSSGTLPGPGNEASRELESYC
Protocol: as §3, §4

mouse GIPR [3] = molecular target: T3, mouse GIPR (Mus musculus, UniProt Q0P543); experiment: β-arrestin-2 recruitment (NanoBiT), mouse GIPR; format: cell-based
T3 sequence (Q0P543 19-460): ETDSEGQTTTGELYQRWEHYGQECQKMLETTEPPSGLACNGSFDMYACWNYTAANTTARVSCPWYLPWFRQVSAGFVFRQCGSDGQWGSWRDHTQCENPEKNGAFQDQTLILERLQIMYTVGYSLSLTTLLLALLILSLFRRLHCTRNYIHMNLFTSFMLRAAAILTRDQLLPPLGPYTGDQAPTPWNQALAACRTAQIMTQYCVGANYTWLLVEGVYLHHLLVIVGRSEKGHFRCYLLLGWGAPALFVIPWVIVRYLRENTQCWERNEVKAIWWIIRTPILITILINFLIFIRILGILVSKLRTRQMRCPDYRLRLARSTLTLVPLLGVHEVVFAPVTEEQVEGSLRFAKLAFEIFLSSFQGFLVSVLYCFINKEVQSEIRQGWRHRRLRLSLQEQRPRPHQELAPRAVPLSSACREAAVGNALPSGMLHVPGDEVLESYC
Protocol: (§1) To measure GLP-1R and GIPR-mediated β-arrestin recruitment, we utilized Promega's NanoBiT® technology or NanoLuc® Binary Technology. The NanoLuc luciferase is split into two subunits, called LgBiT and SmBIT, which are expressed in HEK293 cells as fusion proteins at the C-terminus of GLP-IR or GIPR and the N-terminus of β-arrestin-2. […] The next day, the media was removed and replaced with […] 1:100 dilution of Nano-Glo® Live Cell Substrate in Opti-MEM™ and equilibrated to room temperature for ten minutes. Background luminescence was measured before 10 nL compound was added using an ECHO Acoustic Liquid Handler.
(§2) To measure GLP-1R and GIPR-mediated β-arrestin recruitment, Promega's NanoBiT® technology or NanoLuc® Binary Technology were utilized. Both allow for the detection and quantification of protein: protein interactions in live cells (Samms et al., Trends Endocrinol Metab 31:410-21). The NanoLuc luciferase is split into two subunits, called LgBiT and SmBIT, which are expressed in HEK293 cells as fusion proteins at the C-terminus of GLP-1R or GIPR and the N-terminus of β-arrestin-2, respectively. […] The next day, media was removed and replaced with 10 μL 1:100 dilution of Nano-Glo® Live Cell Substrate in Optimem and equilibrated to room temperature for ten minutes. Background luminescence was measured before 10 nL compound was added using an ECHO Acoustic Liquid Handler. Luminescence was measured at 1.5-minute intervals for 30 minutes.

mouse GLP-1R [4] = molecular target: T4, mouse GLP-1R (Mus musculus, UniProt O35659); experiment: cAMP accumulation (HitHunter cAMP assay), mouse GLP-1R U2OS cells
T4 sequence (O35659 22-463): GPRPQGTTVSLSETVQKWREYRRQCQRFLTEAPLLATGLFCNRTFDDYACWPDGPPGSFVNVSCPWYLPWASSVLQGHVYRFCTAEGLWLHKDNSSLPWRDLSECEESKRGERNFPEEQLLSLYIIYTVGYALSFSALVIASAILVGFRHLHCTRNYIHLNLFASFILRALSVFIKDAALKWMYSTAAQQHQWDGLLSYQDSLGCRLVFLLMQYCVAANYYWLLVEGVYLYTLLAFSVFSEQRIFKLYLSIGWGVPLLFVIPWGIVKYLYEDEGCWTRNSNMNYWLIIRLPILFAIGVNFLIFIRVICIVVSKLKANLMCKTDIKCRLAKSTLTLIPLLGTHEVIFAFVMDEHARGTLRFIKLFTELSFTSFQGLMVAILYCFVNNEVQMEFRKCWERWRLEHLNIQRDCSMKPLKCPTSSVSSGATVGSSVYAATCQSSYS

mouse GIPR [5] = molecular target: T3, mouse GIPR; experiment: cAMP accumulation (HitHunter cAMP assay), mouse GIPR CHO-K1 cells
mouse GLP-1R [6] = molecular target: T4, mouse GLP-1R; experiment: β-arrestin-2 recruitment (NanoBiT), mouse GLP-1R; format: cell-based
Protocol: as §1, §2

human GLP-1R [7] = molecular target: T1, human GLP-1R; experiment: β-arrestin-2 recruitment (NanoBiT), human GLP-1R; format: cell-based; settings: read-out: hGLP-1R β-arrestin-2 % Emax; Table 17
Protocol: as §1
To measure GLP-1R and GIPR-mediated β-arrestin recruitment, Promega's NanoBiT® technology or NanoLuc® Binary Technology were utilized. Both allow for the detection and quantification of protein: protein interactions in live cells (Samms et al., Trends Endocrinol Metab 31:410-21). The NanoLuc luciferase is split into two subunits, called LgBiT and SmBIT, which are expressed in HEK293 cells as fusion proteins at the C-terminus of GLP-1R or GIPR and the N-terminus of β-arrestin-2, respectively. […] Background luminescence was measured before 10 nL compound was added using an ECHO Acoustic Liquid Handler. Luminescence was measured at 1.5-minute intervals for 30 minutes.

human GIPR [8] = molecular target: T2, human GIPR; experiment: cAMP accumulation, SNAP-human GIPR CHO-K1 cells

T1 sequence (P43220 24-463): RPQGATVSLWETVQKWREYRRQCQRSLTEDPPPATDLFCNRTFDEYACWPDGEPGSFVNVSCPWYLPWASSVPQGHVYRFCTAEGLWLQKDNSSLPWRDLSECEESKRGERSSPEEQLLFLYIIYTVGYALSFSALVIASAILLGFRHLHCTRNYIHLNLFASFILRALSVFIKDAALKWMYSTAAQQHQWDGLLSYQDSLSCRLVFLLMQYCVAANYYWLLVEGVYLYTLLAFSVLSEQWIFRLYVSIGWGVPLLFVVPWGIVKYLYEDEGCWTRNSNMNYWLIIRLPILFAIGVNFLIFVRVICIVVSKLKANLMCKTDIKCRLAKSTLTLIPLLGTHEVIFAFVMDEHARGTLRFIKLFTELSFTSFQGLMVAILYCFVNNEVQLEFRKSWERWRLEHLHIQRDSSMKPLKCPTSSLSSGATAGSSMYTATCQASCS

CCCCCCCCCCCCCCCC(=O)N[C@@H](CCC(=O)NCCCC[C@H](NC(=O)[C@H](CO)NC(=O)[C@@H]1CCCN1C(=O)[C@@H]1CCCN1C(=O)[C@@H]1CCCN1C(=O)[C@H](C)NC(=O)CNC(=O)[C@H](CO)NC(=O)[C@H](CO)NC(=O)[C@@H]1CCCN1C(=O)CNC(=O)CNC(=O)[C@H](C)NC(=O)[C@H](CC(C)C)NC(=O)[C@H](CC(C)C)NC(=O)[C@H](Cc1c[nH]c2ccccc12)NC(=O)[C@H](CC(N)=O)NC(=O)[C@@H](NC(=O)[C@H](Cc1ccccc1)NC(=O)[C@H](CCC(=O)O)NC(=O)C(C)(C)NC(=O)[C@H](C)NC(=O)[C@H](C)NC(=O)[C@H](CCC(N)=O)NC(=O)[C@H](CCCCN)NC(=O)[C@H](CC(=O)O)NC(=O)[C@H](CC(C)C)NC(=O)[C@H](Cc1ccc(O)cc1)NC(=O)[C@@H](NC(=O)[C@H](CO)NC(=O)[C@H](Cc1ccc(O)cc1)NC(=O)[C@H](CC(=O)O)NC(=O)[C@H](CO)NC(=O)[C@@H](NC(=O)[C@H](Cc1ccccc1)NC(=O)[C@@H](NC(=O)CNC(=O)[C@H](CCC(=O)O)NC(=O)CSCC(=O)NCCN1C(=O)CSC1=O)[C@@H](C)O)[C@@H](C)O)[C@@H](C)CC)C(C)C)C(N)=O)C(=O)O [CT-859]
GLP-1R expression after two hours of exposure (in words) (human GLP-1R [1]): higher versus vehicle-treated cells | human GIPR surface expression (in words) (human GIPR [2]): stimulating greater surface expression than vehicle | native ligand mediated recruitment of β-arrestin-2 at GIPR (in words) (mouse GIPR [3]; antagonist mode vs GIP): inhibited | recruitment of β-arrestin-2 to mouse GIPR (mouse GIPR [3]; vs GIP): < 5% | agonist type for cAMP accumulation at mouse GLP-1R (in words) (mouse GLP-1R [4]): full agonist | times less potent than Liraglutide (mouse GLP-1R [4]; cAMP, mouse GLP-1R): 12 times | times less potent than native ligand GLP-1 (mouse GLP-1R [4]; cAMP, mouse GLP-1R): 113 times | agonist type for cAMP accumulation at mouse GIPR (in words) (mouse GIPR [5]): partial agonist | times lower potency than GIP (mouse GIPR [5]; cAMP, mouse GIPR): 48 times | recruitment of β-arrestin-2 to mouse GLP-1R (mouse GLP-1R [6]): < 5% | native ligand mediated recruitment of β-arrestin-2 at GLP-1R (in words) (mouse GLP-1R [6]; antagonist mode vs GLP-1): inhibited

CCCCCCCCCCCCCCCC(=O)N[C@@H](CCC(=O)NCCCC[C@H](NC(=O)[C@H](CO)NC(=O)[C@@H]1CCCN1C(=O)[C@@H]1CCCN1C(=O)[C@@H]1CCCN1C(=O)[C@H](C)NC(=O)CNC(=O)[C@H](CO)NC(=O)[C@H](CO)NC(=O)[C@@H]1CCCN1C(=O)CNC(=O)CNC(=O)[C@H](C)NC(=O)[C@H](CC(C)C)NC(=O)[C@H](CC(C)C)NC(=O)[C@H](Cc1c[nH]c2ccccc12)NC(=O)[C@H](CC(N)=O)NC(=O)[C@@H](NC(=O)[C@H](Cc1ccccc1)NC(=O)[C@H](CCC(=O)O)NC(=O)C(C)(C)NC(=O)[C@H](C)NC(=O)[C@H](C)NC(=O)[C@H](CCC(N)=O)NC(=O)[C@H](CCCCN)NC(=O)[C@H](CC(=O)O)NC(=O)[C@H](CC(C)C)NC(=O)[C@H](Cc1ccc(O)cc1)NC(=O)[C@@H](NC(=O)[C@H](CO)NC(=O)[C@H](Cc1ccc(O)cc1)NC(=O)[C@H](CC(=O)O)NC(=O)[C@H](CO)NC(=O)[C@@H](NC(=O)[C@H](Cc1ccccc1)NC(=O)[C@@H](NC(=O)CNC(=O)[C@H](CCC(=O)O)NC(=O)CSCC(=O)NCCN1CCCCC1=O)[C@@H](C)O)[C@@H](C)O)[C@@H](C)CC)C(C)C)C(N)=O)C(=O)O [CT-868]
Emax (human GLP-1R [1]; Table 17, read-out: hGLP-1R Internalization % Emax): -13% | Emax (human GIPR [2]; Table 17, read-out: hGIPR Internalization % Emax): -11% | Emax (mouse GIPR [3]; read-out: mGIPR β-arrestin-2 % Emax, Table 17): -1.92% | Emax (human GLP-1R [7]): 1.5% | Emax (mouse GLP-1R [4]; U2OS, read-out: mGLP-1R cAMP (-alb) % Emax): 95% | Emax (mouse GIPR [5]; CHO-K1, read-out: mGIPR cAMP (-alb) % Emax): 36% | Emax (human GIPR [8]; CHO-K1, read-out: hGIPR cAMP (-alb) % Emax): 41% | EC50 (human GIPR [8]; potency activating cAMP at human GIPR, value of b126): ~0.0033 µM | EC50 (mouse GLP-1R [6]; Table 17, read-out: mGLP-1R β-arrestin-2 EC50): 0.021 µM | Emax (mouse GLP-1R [6]; read-out: mGLP-1R β-arrestin-2 % Emax, Table 17): 4.69%

Source: patent publication US20240366728A1, “Treatment of Diabetes Mellitus” (Carmot Therapeutics Inc., priority 2023, published 2024)
